Values belong to the compound of their own block, whether it stands above or below them. Calls of active or inactive are those of the source.
Key:
Beta-galactosidase = Beta-galactosidase (Escherichia coli, UniProt Q8VNN2); test: PubChem AID 485352; type: functional
[1] = molecular target: Type-1 angiotensin II receptor (Homo sapiens, UniProt P30556); test: antagonism of angiotensin II type 1 receptor – cell-based, uHTS hits, selectivity assay for APJ receptor antagonist project, dose response (AID 463214); type: functional;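 note: antagonist potency against angiotensin II stimulated AT1 response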
[2] = molecular target: T1, Short transient receptor potential channel 4 (Mus musculus, UniProt Q9QUQ5); test: block of DAMGO-driven TRPC4 calcium entry – cell-based, HEK293 TRPC4/mu-opioid, Fluo-4 calcium, dose response (AID 434942); type: functional;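 note: potency of inhibitors blocking the TRPC4 calcium response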
T1 sequence (Q9QUQ5 whole entry): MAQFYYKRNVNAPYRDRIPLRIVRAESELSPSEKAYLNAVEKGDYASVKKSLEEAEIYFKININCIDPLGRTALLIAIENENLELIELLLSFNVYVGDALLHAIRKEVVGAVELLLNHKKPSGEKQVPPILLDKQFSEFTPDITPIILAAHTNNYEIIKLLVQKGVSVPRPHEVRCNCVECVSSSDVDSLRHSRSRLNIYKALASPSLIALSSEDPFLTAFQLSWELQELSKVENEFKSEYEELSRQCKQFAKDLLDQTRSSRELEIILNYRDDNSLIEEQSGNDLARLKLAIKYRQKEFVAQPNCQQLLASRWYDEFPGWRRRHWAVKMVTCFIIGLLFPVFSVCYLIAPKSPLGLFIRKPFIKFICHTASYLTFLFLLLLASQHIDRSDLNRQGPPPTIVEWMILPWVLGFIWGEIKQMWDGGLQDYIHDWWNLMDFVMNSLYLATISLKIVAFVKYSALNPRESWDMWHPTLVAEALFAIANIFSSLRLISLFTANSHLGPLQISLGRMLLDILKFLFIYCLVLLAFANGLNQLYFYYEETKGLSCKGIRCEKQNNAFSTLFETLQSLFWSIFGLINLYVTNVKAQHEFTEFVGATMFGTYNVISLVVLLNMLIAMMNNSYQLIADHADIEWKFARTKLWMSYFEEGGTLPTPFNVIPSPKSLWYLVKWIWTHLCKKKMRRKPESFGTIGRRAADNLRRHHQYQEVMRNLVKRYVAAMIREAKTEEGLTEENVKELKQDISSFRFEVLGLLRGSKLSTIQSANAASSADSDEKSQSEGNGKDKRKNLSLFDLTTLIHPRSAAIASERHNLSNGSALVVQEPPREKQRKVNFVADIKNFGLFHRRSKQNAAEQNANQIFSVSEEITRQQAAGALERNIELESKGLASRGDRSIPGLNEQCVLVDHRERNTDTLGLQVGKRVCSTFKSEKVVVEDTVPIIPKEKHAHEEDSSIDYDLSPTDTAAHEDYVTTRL

Escherichia coli [3] = test: microbe, parasite or virus in culture
Escherichia coli [4] = test: microbe, parasite or virus in culture; remark: listed apart in the source
[5] = molecular target: T1, Short transient receptor potential channel 4; test: calcium entry via TRPC4 opening agents – cell-based, HEK293 TRPC4/mu-opioid, Fluo-4 calcium, dose response (AID 434937); type: functional
[6] = molecular target: Delta-type opioid receptor (Homo sapiens, UniProt P41143); test: Counterscreen for agonists of heterodimerization of the mu 1 (OPRM1) and delta 1 (OPRD1) opioid receptors: Luminescence-based cell-based high throughput dose response assay to identify agonists of OPRD1 homodimerization. [Related pubchem assays (depositor defined):AID504326, AID504355, AID504692, AID504904, AID504905]; type: functional
Mu-type opioid receptor = Mu-type opioid receptor (Homo sapiens, UniProt P35372); test: Counterscreen for agonists of heterodimerization of the mu 1 (OPRM1) and delta 1 (OPRD1) opioid receptors: Luminescence-based cell-based high throughput dose response assay to identify agonists of OPRM1 homodimerization.; type: functional;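 note: U2OS cells expressing OPRM1 and beta-arrestin as split beta-galactosidase partners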
[7] = molecular target: 5-hydroxytryptamine receptor 5A (Homo sapiens, UniProt P47898); test: Counterscreen for agonists of OPRM1-OPRD1 heterodimerization: luminescence-based cell-based high throughput dose response assay to identify agonists of 5-hydroxytryptamine (serotonin) 5A receptor (HTR5A). [Related pubchem assays (depositor defined):AID504326, AID504355, AID504692, AID504904, AID504905]; type: functional
Cysteine protease ATG4B = Cysteine protease ATG4B (Homo sapiens, UniProt Q9Y4P1); type: functional;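 note: Fluorescence-based dose-response confirmation assay measuring inhibition of ATG4B activity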
Phospholipase A2 = Phospholipase A2 (Homo sapiens, UniProt P04054); type: functional;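 note: confirmatory dose-response counterscreen on phospholipase A2, testing hits that came from an ultra-high-throughput screen for ATG4B inhibitors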
[8] = molecular target: DNA dC->dU-editing enzyme APOBEC-3G (Homo sapiens, UniProt Q9HC16); test: inhibition of APOBEC3G ssDNA deamination – biochemical, fluorescence, single-stranded DNA substrate, SAR follow-up (AID 602136); type: functional; settings: read-out: IC50_Mean
[9] = molecular target: DNA dC->dU-editing enzyme APOBEC-3A (Homo sapiens, UniProt P31941); test: SAR analysis of small molecule inhibitors of APOBEC3A DNA Deaminase via a fluorescence-based single-stranded DNA deaminase assay.; type: functional; settings: read-out: IC50_Mean
[10] = Luminescence Cell-Based Dose Retest to Confirm Inhibitors of Cancer Stem Cells. [Related pubchem assays (depositor defined):AID2717, AID2721]; type: functional; settings: Homo sapiens
[11] = molecular target: Heat shock protein HSP 90-alpha (Homo sapiens, UniProt P07900); type: functional, organism-based
[12] = molecular target: Voltage-gated inwardly rectifying potassium channel KCNH2 (Homo sapiens, UniProt Q12809); settings: Potency;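 note: confirmatory quantitative high-throughput screen measuring inhibition of hERG channel activity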
Voltage-gated inwardly rectifying potassium channel KCNH2, sequence (Q12809 whole entry): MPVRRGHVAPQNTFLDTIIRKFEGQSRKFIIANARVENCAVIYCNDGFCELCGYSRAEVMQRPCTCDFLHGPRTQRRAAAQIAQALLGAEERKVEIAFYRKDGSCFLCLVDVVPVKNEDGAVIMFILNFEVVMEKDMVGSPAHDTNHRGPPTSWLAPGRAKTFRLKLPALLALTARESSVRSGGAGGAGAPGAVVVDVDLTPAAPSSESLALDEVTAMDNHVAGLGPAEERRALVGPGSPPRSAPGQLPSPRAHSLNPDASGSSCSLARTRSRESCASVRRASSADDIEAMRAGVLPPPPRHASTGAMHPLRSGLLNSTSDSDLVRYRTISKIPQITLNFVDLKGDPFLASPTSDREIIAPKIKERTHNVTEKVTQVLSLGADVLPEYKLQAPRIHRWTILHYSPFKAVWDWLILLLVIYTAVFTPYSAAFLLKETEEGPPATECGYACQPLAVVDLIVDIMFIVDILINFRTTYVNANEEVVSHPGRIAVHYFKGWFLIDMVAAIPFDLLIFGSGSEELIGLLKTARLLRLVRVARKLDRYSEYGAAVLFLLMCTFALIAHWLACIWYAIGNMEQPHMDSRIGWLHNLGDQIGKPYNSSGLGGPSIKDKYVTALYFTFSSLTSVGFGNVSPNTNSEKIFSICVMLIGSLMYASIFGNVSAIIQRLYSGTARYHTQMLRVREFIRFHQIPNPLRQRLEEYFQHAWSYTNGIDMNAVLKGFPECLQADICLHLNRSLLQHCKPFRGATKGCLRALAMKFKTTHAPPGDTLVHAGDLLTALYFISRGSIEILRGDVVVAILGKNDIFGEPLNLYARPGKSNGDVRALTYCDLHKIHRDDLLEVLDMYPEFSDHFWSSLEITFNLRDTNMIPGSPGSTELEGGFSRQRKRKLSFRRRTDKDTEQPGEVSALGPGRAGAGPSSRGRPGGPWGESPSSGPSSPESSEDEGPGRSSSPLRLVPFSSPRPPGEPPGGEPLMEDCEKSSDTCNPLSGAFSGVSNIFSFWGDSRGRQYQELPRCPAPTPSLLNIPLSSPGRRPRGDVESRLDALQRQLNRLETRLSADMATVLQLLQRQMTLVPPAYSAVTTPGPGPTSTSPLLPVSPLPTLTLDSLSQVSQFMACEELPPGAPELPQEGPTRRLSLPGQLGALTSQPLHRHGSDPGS

Type-1 angiotensin II receptor, sequence (P30556 whole entry): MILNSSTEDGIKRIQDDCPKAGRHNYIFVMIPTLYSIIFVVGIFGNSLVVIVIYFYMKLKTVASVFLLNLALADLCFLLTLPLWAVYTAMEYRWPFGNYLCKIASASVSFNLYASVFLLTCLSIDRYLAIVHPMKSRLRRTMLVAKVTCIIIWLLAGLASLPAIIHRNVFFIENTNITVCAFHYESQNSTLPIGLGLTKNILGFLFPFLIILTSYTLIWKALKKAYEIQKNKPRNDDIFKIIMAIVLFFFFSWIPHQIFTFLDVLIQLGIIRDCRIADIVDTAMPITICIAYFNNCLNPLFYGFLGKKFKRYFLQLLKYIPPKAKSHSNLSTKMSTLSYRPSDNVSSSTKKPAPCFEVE
Beta-galactosidase, sequence (Q8VNN2 whole entry): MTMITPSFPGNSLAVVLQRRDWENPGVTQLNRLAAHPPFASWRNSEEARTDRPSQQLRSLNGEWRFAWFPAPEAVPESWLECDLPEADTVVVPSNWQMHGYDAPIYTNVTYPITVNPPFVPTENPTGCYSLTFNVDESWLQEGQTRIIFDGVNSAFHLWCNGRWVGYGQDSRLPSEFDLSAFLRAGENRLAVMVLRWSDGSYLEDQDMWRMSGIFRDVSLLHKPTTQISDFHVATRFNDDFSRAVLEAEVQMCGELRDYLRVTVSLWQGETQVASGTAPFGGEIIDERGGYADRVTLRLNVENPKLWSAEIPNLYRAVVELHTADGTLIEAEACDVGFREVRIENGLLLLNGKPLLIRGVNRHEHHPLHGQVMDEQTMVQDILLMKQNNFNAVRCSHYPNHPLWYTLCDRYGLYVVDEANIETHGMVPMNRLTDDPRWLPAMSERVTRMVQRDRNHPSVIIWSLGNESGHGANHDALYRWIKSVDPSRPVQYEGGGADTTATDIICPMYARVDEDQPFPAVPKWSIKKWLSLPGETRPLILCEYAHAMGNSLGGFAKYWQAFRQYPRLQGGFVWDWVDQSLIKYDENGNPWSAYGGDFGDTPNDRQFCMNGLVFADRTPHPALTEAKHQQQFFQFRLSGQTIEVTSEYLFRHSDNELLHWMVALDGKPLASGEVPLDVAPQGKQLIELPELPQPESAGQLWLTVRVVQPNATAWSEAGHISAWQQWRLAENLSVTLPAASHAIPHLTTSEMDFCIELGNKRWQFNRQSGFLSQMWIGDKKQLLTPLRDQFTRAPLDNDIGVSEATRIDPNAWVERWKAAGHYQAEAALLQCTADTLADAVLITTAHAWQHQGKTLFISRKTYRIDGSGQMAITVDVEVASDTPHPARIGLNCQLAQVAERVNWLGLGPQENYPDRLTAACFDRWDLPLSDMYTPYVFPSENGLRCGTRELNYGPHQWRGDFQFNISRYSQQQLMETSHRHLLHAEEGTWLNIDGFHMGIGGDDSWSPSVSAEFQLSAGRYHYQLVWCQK
DNA dC->dU-editing enzyme APOBEC-3A, sequence (P31941 whole entry): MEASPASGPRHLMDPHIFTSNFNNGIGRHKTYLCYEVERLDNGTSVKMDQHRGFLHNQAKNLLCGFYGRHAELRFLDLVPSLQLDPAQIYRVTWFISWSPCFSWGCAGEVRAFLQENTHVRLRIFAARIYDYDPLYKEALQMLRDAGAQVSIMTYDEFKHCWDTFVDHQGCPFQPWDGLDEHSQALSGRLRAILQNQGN
DNA dC->dU-editing enzyme APOBEC-3G, sequence (Q9HC16 whole entry): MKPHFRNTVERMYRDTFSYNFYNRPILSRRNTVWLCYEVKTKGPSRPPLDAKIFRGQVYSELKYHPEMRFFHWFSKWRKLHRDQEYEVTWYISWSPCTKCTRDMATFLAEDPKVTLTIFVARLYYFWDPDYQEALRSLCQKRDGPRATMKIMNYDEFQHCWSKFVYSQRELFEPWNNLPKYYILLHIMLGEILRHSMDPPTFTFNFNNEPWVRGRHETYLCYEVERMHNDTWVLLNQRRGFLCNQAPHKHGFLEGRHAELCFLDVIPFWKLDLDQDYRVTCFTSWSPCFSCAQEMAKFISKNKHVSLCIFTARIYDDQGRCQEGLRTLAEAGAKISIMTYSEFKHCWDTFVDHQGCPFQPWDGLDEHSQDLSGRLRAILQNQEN
Mu-type opioid receptor, sequence (P35372 whole entry): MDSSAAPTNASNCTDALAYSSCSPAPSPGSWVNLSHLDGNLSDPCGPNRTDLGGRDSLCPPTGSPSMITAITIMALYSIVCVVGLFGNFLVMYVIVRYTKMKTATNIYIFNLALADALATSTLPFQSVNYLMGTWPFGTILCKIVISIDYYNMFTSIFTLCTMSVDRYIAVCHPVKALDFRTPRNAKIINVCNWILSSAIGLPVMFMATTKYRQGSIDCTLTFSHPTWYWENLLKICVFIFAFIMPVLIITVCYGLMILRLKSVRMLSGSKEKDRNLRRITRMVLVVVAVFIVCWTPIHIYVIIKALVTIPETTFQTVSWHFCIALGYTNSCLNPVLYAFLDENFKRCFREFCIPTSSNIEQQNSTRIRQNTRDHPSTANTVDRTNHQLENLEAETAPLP
5-hydroxytryptamine receptor 5A, sequence (P47898 whole entry): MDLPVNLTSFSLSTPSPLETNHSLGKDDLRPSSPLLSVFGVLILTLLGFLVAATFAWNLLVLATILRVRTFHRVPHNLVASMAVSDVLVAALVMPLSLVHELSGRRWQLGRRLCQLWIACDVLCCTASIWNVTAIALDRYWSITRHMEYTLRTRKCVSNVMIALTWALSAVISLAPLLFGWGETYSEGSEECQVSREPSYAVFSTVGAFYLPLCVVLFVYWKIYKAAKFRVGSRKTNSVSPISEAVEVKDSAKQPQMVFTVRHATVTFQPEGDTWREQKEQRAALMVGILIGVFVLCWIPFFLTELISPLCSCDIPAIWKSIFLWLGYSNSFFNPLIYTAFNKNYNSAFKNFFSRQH
Cysteine protease ATG4B, sequence (Q9Y4P1 whole entry): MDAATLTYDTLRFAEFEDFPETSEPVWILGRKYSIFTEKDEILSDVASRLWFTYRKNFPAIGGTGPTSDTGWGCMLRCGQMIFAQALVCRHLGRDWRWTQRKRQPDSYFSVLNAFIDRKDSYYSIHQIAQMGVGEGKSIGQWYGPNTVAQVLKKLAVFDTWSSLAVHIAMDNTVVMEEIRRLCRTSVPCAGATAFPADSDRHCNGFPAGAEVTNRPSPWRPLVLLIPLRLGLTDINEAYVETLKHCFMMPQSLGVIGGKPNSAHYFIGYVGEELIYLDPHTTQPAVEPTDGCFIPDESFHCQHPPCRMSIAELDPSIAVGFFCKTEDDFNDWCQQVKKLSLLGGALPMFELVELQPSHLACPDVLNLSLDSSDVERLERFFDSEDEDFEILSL
Phospholipase A2, sequence (P04054 whole entry): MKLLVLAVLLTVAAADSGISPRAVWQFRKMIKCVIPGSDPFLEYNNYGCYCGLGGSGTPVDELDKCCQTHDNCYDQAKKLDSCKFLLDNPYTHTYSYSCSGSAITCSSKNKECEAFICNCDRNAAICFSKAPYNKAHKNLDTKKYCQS
Delta-type opioid receptor, sequence (P41143 whole entry): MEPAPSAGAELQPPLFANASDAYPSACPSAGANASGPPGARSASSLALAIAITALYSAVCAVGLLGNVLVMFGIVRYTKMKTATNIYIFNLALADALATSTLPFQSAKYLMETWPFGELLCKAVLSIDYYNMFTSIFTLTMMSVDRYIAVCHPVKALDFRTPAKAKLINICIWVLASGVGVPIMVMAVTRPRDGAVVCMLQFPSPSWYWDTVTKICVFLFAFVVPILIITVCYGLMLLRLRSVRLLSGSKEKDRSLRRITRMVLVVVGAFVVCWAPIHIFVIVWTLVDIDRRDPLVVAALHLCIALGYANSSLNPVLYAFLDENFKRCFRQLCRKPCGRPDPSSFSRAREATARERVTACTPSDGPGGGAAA

SMILES: OCC1(Cc2ccc(Cl)cc2)CCN(Cc2ccccc2F)CC1
EC50 [2]: 5.96 µM (active) | AC50 (Escherichia coli [3]): 21.9 µM (active) | AC50 (Escherichia coli [4]): 88.9 µM (active)

SMILES: CCOC(=O)C1(CC2CCCCO2)CCN(Cc2cc(F)ccc2-n2cccn2)CC1 (stereo not drawn)
EC50 [5]: 0.473 µM (active) | EC50 [6]: > 92.5 µM (inactive) | EC50 (Mu-type opioid receptor): > 92.5 µM (inactive) | EC50 [7]: > 92.5 µM (inactive)

SMILES: Cc1nc2sc3c(c2c2nncn12)CCCC3
IC50 [8]: > 99 µM (inactive) | IC50 [9]: > 99 µM (inactive)

SMILES: CC[C@@H]1Cc2cc(O)ccc2C2=C1c1ccc(O)cc1C[C@H]2CC
AC50 [10]: 2.36 µM (active) | AC50 [11]: 6.32 µM (active) | AC50 [12]: 25.1 µM (inconclusive)

Now from value to compound:

EC50 (Beta-galactosidase): > 40 µM (inactive) | IC50 [1]: > 40 µM (not active)
SMILES: CSc1cccc(N=C2C(=O)Nc3ccccc32)c1

EC50 (Beta-galactosidase): > 40 µM (inactive) | IC50 [1]: 36.4 µM (not active)
SMILES: Cc1ccc(C(=O)NCC(=O)OCC(=O)c2ccc(C)c([N+](=O)[O-])c2)cc1

IC50 (Cysteine protease ATG4B): 12.4 µM (active) | IC50 (Phospholipase A2): 8.76 µM (active)
SMILES: COC(=O)c1sc(N(C)C)c(C#N)c1-c1ccccc1
